Columns and labels:
Assay in all cases: relative viability (nuclei count vs DMSO), 5 days (fraction); higher = more cells survive
RO-3306 + Trametinib = compound: C1=CC2=C(C=CC(=C2)C=C3C(=O)NC(=NCC4=CC=CS4)S3)N=C1 [RO-3306] + CC(=O)Nc1cccc(-n2c(=O)n(C3CC3)c(=O)c3c(Nc4ccc(I)cc4F)n(C)c(=O)c(C)c32)c1 [Trametinib] (partner 0.02 µM)
Outline: (§1)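 Lung cancer cell lines, seeded in 1536-well plates, were treated the following day by pin tool with a single drug or with five library-drug doses (not always all listed) in √10 steps on top of a fixed anchor-drug dose. Cells were fixed and nuclei stained in one step after 5 days, and nuclei were counted. Relative viability is the nuclei count for treated wells divided by that for vehicle wells, reported as medians of duplicate plates.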

RO-3306 + Foretinib = compound: C1=CC2=C(C=CC(=C2)C=C3C(=O)NC(=NCC4=CC=CS4)S3)N=C1 [RO-3306] + COc1cc2c(Oc3ccc(NC(=O)C4(C(=O)Nc5ccc(F)cc5)CC4)cc3F)ccnc2cc1OCCCN1CCOCC1 [Foretinib] (partner 0.25 µM)
Outline: as §1

RO-3306 + Crizotinib = compound: C1=CC2=C(C=CC(=C2)C=C3C(=O)NC(=NCC4=CC=CS4)S3)N=C1 [RO-3306] + C[C@@H](Oc1cc(-c2cnn(C3CCNCC3)c2)cnc1N)c1c(Cl)ccc(F)c1Cl [Crizotinib] (partner 1 µM)
Outline: as §1

RO-3306 + Decitabine = compound: C1=CC2=C(C=CC(=C2)C=C3C(=O)NC(=NCC4=CC=CS4)S3)N=C1 [RO-3306] + Nc1ncn([C@H]2C[C@H](O)[C@@H](CO)O2)c(=O)n1 [Decitabine] (partner 2 µM)
Outline: as §1

| Cell Line | relative viability (RO-3306 + Trametinib; first compound 0.01 µM) | relative viability (RO-3306 + Trametinib; first compound 0.03162 µM) | relative viability (RO-3306 + Trametinib; first compound 0.1 µM) | relative viability (RO-3306 + Trametinib; first compound 0.3162 µM) | relative viability (RO-3306 + Trametinib; first compound 1 µM) | relative viability (RO-3306 + Foretinib; first compound 0.01 µM) | relative viability (RO-3306 + Foretinib; first compound 0.03162 µM) | relative viability (RO-3306 + Foretinib; first compound 0.1 µM) | relative viability (RO-3306 + Foretinib; first compound 0.3162 µM) | relative viability (RO-3306 + Foretinib; first compound 1 µM) | relative viability (RO-3306 + Crizotinib; first compound 0.01 µM) | relative viability (RO-3306 + Crizotinib; first compound 0.03162 µM) | relative viability (RO-3306 + Crizotinib; first compound 0.1 µM) | relative viability (RO-3306 + Crizotinib; first compound 0.3162 µM) | relative viability (RO-3306 + Crizotinib; first compound 1 µM) | relative viability (RO-3306 + Decitabine; first compound 0.01 µM) | relative viability (RO-3306 + Decitabine; first compound 0.03162 µM) | relative viability (RO-3306 + Decitabine; first compound 0.1 µM) | relative viability (RO-3306 + Decitabine; first compound 0.3162 µM) | relative viability (RO-3306 + Decitabine; first compound 1 µM) |
| --- | --- | --- | --- | --- | --- | --- | --- | --- | --- | --- | --- | --- | --- | --- | --- | --- | --- | --- | --- | --- |
| SK-MES-1 | 0.519 | 0.537 | 0.483 | 0.491 | 0.562 | 1.06 | 0.425 | 0.996 | 0.782 | 0.976 | 1.1 | 0.867 | 0.969 | 0.991 | 1.07 | 0.341 | 0.406 | 0.327 | 0.352 | 0.371 |
| H3255 | 0.791 | 0.533 | 0.584 | 0.557 | 0.546 | 0.798 | 0.711 | 0.758 | 0.848 | 0.898 | 0.926 | 0.836 | 0.761 | 0.916 | 0.642 | 0.727 | 0.509 | 0.625 | 0.641 | 0.57 |
| NCI-H2087 | 0.176 | 0.193 | 0.188 | 0.234 | 0.202 | 0.985 | 1.01 | 1.13 | 1.24 | 0.982 | 1 | 0.902 | 1.04 | 0.893 | 0.945 | 0.296 | 0.276 | 0.253 | 0.251 | 0.25 |
| NCI-H1666 | 0.792 | 0.665 | 0.835 | 0.765 | 0.783 | 0.936 | 0.891 | 0.905 | 1.04 | 0.935 | 1.04 | 0.869 | 0.915 | 0.839 | 0.89 | 0.729 | 0.75 | 0.736 | 0.711 | 0.641 |
| SK-LU-1 | 0.463 | 0.412 | 0.501 | 0.506 | 0.309 | 0.853 | 0.783 | 0.831 | 0.778 | 0.712 | 0.991 | 0.84 | 1.03 | 0.935 | 0.716 | 0.657 | 0.537 | 0.597 | 0.643 | 0.56 |
| NCI-H727 | 0.39 | 0.388 | 0.355 | 0.352 | 0.409 | 1.03 | 0.94 | 0.74 | 1.21 | 1.01 | 1.33 | 0.781 | 0.837 | 1 | 0.964 | 0.834 | 0.751 | 0.891 | 0.888 | 0.846 |
| NCI-H1755 | 0.859 | 0.768 | 0.791 | 0.803 | 0.771 | 0.939 | 0.973 | 0.921 | 0.927 | 0.936 | 0.934 | 1.02 | 0.875 | 0.846 | 0.811 | 0.73 | 0.739 | 0.728 | 0.706 | 0.707 |
| NCI-H1650 | 0.6 | 0.505 | 0.514 | 0.565 | 0.447 | 1.73 | 0.858 | 0.917 | 1.11 | 0.723 | 1.02 | 0.921 | 0.973 | 1.02 | 0.732 | 0.482 | 0.456 | 0.427 | 0.472 | 0.407 |
| HARA | 0.448 |  | 0.519 | 0.694 | 0.741 | 1.08 | 0.58 | 0.884 | 0.882 | 0.767 | 1.05 | 0.916 | 1.04 | 1.27 | 1.01 | 0.523 |  | 0.58 | 0.654 | 0.692 |
| NCI-H1944 | 0.387 | 0.403 | 0.428 | 0.445 | 0.41 | 0.966 | 0.884 | 0.818 | 0.92 | 0.915 | 1.11 | 0.98 | 1.16 | 1.21 | 1.03 | 0.424 | 0.432 | 0.424 | 0.453 | 0.376 |
| RERF-LC-KJ | 0.914 | 0.907 | 0.862 | 0.881 | 0.935 | 0.844 | 0.683 | 0.795 | 0.906 | 0.958 | 0.848 | 1.03 | 0.797 | 0.848 | 0.95 | 0.763 | 0.715 | 0.689 | 0.75 | 0.665 |
| NCI-H647 | 0.538 | 0.38 | 0.457 | 0.486 | 0.533 | 1.29 | 1.12 | 1.12 | 1.27 | 1.24 | 1.42 | 0.869 | 1.02 | 1.06 | 1.15 | 0.479 | 0.336 | 0.417 | 0.429 | 0.405 |
| NCI-H838 | 0.596 | 0.487 | 0.54 | 0.557 | 0.45 | 1.13 | 0.966 | 1.06 | 1.16 | 1.06 | 0.957 | 0.765 | 0.837 | 0.93 | 0.607 | 0.512 | 0.443 | 0.425 | 0.466 | 0.412 |
| NCI-H2170 | 1.18 | 0.792 | 0.886 | 0.96 | 0.958 | 0.929 | 0.925 | 0.98 | 1.11 | 0.985 | 1.34 | 0.758 | 1.15 | 1.24 | 1.13 | 0.473 | 0.433 | 0.471 | 0.458 | 0.486 |
| COR-L 105 | 0.392 | 0.491 | 0.427 | 0.434 | 0.538 | 1.74 | 1.23 | 1.06 | 1.17 | 0.859 | 0.757 | 0.794 | 0.781 | 0.768 | 0.673 | 0.652 | 0.607 | 0.596 | 0.623 | 0.658 |
| HOP-62 | 0.433 | 0.383 | 0.384 | 0.398 | 0.36 | 1.2 | 1.07 | 1.05 | 1.05 | 1.1 | 1.2 | 1.09 | 0.973 | 1.05 | 0.891 | 0.229 | 0.239 | 0.207 | 0.222 | 0.249 |

Source: the supplement of paper PMC10307832
